In the NIST ThermoML archive (doi:10.1016/j.jct.2010.12.012):
Several values for one entry are separate records, joined by “and”; a condition that tells them apart may be missing. Identical values can stand only once. Numbers after ± are expanded uncertainties.

Legend:
[1] = refractive index (Na D-line) (dimensionless); conditions: 298.15 K; 101.33 kPa; Liquid; Standard Abbe refractometry
[2] = 298.15 K; 101.33 kPa; Liquid; Vibrating tube method
[3] = xn = mol fraction of the nth substance listed; conditions: 298.15 K, 101 kPa, Liquid, Vibrating tube method

Row | Structure (SMILES) | refractive index [1] | mass density [2] | other results
1 | CCCCn1cc[n+](C)c1.COS(=O)(=O)[O-] [1-butyl-3-methylimidazolium methyl sulfate] | 1.47792 ± 0.00037 | 1212.59 ± 0.41 kg/m3 | –
2 | CCCCn1cc[n+](C)c1.COS(=O)(=O)[O-] [1-butyl-3-methylimidazolium methyl sulfate] + C1CCCCC1 | – | – | mass density ([3]; x2 = 0.039): 1204.53 ± 1.3 kg/m3
3 | CCCCn1cc[n+](C)c1.COS(=O)(=O)[O-] [1-butyl-3-methylimidazolium methyl sulfate] + CC1CCCCC1 | – | – | mass density ([3]; x2 = 0.028): 1207.3 ± 1.3 kg/m3
4 | CCCCn1cc[n+](C)c1.COS(=O)(=O)[O-] [1-butyl-3-methylimidazolium methyl sulfate] + Cc1ccccc1 | – | – | mass density ([3]; x2 = 0.328): 1151 ± 1.2 kg/m3 and 1153.43 ± 1.2 kg/m3
5 | C1=CCCCC1 [cyclohexene] | 1.44378 ± 0.00037 | 805.69 ± 0.24 kg/m3 | –
6 | C1=CCCCC1 [cyclohexene] + CCCCn1cc[n+](C)c1.COS(=O)(=O)[O-] | – | – | mass density ([3]; x1 = 0.071): 1201.85 ± 1.9 kg/m3
7 | C1CCCCCCC1 [cyclooctane] + CCCCn1cc[n+](C)c1.COS(=O)(=O)[O-] | – | – | mass density ([3]; x1 = 0.02): 1207.63 ± 1.3 kg/m3
8 | Cc1ccccc1 [toluene] | 1.49399 ± 0.00031 | 862.17 ± 0.1 kg/m3 | –

Now from value to compound, other results behind:

Row | refractive index [1] | mass density [2] | Structure (SMILES) | other results
9 | 1.4236 ± 0.00037 | 773.8 ± 0.24 kg/m3 | C1CCCCC1 [cyclohexane] | –
10 | 1.45598 ± 0.00037 | 831.47 ± 0.24 kg/m3 | C1CCCCCCC1 [cyclooctane] | –
11 | 1.42062 ± 0.00037 | 765.02 ± 0.24 kg/m3 | CC1CCCCC1 [methylcyclohexane] | –
